Experiment [1] has as its system MDA-MB231 breast cancer cell line. Description: In vitro cell migration of MDA-MB231 breast cancer cell line. The class given is cell-based, human.
In experiment [2] the test system is NRP-1/OBR complex. The experiment can be described thus: NRP-1/OBR complex detection in MDA-MB231 breast cancer cell line by proximity ligation assay (PLA). The conditions noted are these: MDA-MB231 cultivated in normal human serum, Avastin 40 μg/ml for 48 h, compared to untreated cells. The class given is cell-based. As to the method: NRP-1 and OBR Complex Detection in MBA-MB231 Breast Cancer Cell Line by Immunocytochemistry Using a PLA Technology
The detection of NRP-1/OBR complex in human MDA-MB231 breast cancer cell line was assessed by proximity ligation assay (PLA) or duolink technology (www.olink.com). The detection of the NRP-1/OBR complex was assessed on MDA-MB231 cell line cultivated in normal human serum (human male AB plasma, USA origin, MDL number MFCD00165829 H4522 Sigma) and treated or not with Avastin 40 μg/ml final concentration for 48 h. The goal by using human serum was to mimic a physiologic condition during therapy with Avastin. The immunostained samples were analysed by the acquisition of the Z stacks through confocal microscopy on Zeiss LSM 700, Inverted confocal microscope. The acquired images were analyzed using Image J software for the quantification of NRP-1/OBR complex expressed by cells.

For experiment [3], the system named is Serine/Threonine casein kinase2 (CK2). The experiment can be described thus: CK2 inhibition in breast cancer cell lines: NRP-1 and JAK2 phosphorylation and NRP-1/OBR complex formation. The experiment is classed as cell-based. The conditions noted are these: MDA-MB231 / T47D breast cancer cell lines.
Experiment [4] has as its target T1, NRP-1 (Homo sapiens, UniProt O14786).
T1 construct: the extracellular domain of the recombinant protein NRP-1 from RnD systems; purchased RnD systems
Description: Bio-layer interferometry (BLI) protein:protein interaction with NRP-1. The class given is binding. The following applies: for competition between leptin and VEGF for binding to NRP-1: BLI competition experiment; for interaction (binding) with NRP-1 by BLI: recombinant proteins, extracellular domain of recombinant NRP-1 for the peptide. As to the method: Bio-Layer Interferometry Bio-layer interferometry (BLI) is a label-free technique that is sensitive to an increase of mass bound to the biosensor enabling protein-protein interaction characterization. Ligands preparation: proteins were incubated in a PBS buffer with a 1:3 ratio molar ratio of biotin (biotin-PEG4-NHS from Pierce EZ kit, prepared following the manufacturer's instructions). Free biotin was removed using a desalting column (Pierce). The biotinylated protein (called ligand) was immobilized onto streptavidin biosensor tips and dipped into wells containing the buffer with the analyte of interest (association) or without (dissociation). Experimental conditions were as follow: total volume in each well: 200 μl; shake speed: 1,000 rpm. For simple protein:protein interactions an association phase was followed by a dissociation phase. For competition experiments, the association phase was followed by another association phase with a second analyte instead of a dissociation phase. Sensorgrams were background corrected, smoothed with the Savitzky-Golay algorithm and analyzed using OctetRED instrument software (ForteBio Data Analysis version 7.1). Experimental sensorgrams were first fit to a 1:1 model. The 1:1 model was accepted if the Chi^2 test was below 3 and the R^2 was above 0.9. When the 1:1 model was rejected, the model with the lowest Chi^2 and the highest R^2 was then selected.

“Also recorded” adds a separate entry of the source.

Regarding “Avastin: Anti-VEGF (bevacizumab) antibody”, the cell migration entry in experiment [1] was “induces in vitro cell migration; also recorded: increased MDA-MB231 cell migration”. The “number of NRP-1/OBR complex” value in experiment [2] is listed as “increase of NRP-1/OBR complex detection; also recorded: high number of NRP-1/OBR complex”.

`OC[C@H]1O[C@@H](n2cnc3cc(Cl)c(Cl)cc32)[C@H](O)[C@@H]1O` [DRB]: in experiment [3], the “NRP-1 and JAK2 phosphorylation” value was “prevented”; the “formation of the NRP-1/OBR complex” value is reported as “prevented”.

As for `Brc1c(Br)c(Br)c2n[nH]nc2c1Br` [TBB], in experiment [3], the “NRP-1 and JAK2 phosphorylation” value is listed as “prevented”; the “formation of the NRP-1/OBR complex” value is recorded as “prevented”.

Turning to `O=C(O)c1ccc2c(c1)nc(Nc1cccc(Cl)c1)c1ccncc12` [CX4945], in experiment [3], the “NRP-1 and JAK2 phosphorylation” value is “prevented”; the “formation of the NRP-1/OBR complex” value is “prevented”.

Consider VEGF, for which the “competition between leptin and VEGF for binding to NRP-1” value in experiment [4] is given as “does not prevent leptin binding to NRP-1”.

Turning to “ENLRDLLHVLAFSKSCHLPWASGLETL (listed as Homo sapiens) [SEQ ID:3]”, the “interaction (binding) with NRP-1 by BLI” value in experiment [4] was “validated by BLI”.

“leptin: cytokine-like hormone mainly produced by adipocytes; recombinant protein”: in experiment [4], the “competition between leptin and VEGF for binding to NRP-1” value is reported as “do not compete with VEGF binding”; the “interaction (binding) with NRP-1 by BLI” value was “direct interaction”.
